Data from patent US20040087642A1, “Methods of using and compositions comprising a JNK inhibitor for the treatment, prevention, management and/or modification of pain” (priority 2002, published 2004).

Legend:
[1] = tested on: rat ventral mesencephalan dopaminergic neurons; test: [3H]Dopamine Cell Culture Assay (6-OHDA neurotoxicity); format: cell-based; settings: 6-OHDA 30 μM, uptake 22 hrs after exposure
Protocol: Cultures of dopaminergic neurons were prepared according to a modification of the procedure described by Raymon and Leslie (J. Neurochem. 62:1015-1024, 1994). Time-mated pregnant rats were sacrificed on embyronic day 14-15 (crown rump length 11-12 mm) and the embryos removed by cesarean section. The ventral mesencephalon, containing the dopaminergic neurons, was dissected from each embryo. Tissue pieces from approximately 48 embryos were pooled and dissociated both enzymatically and mechanically. An aliquot from the resulting cell suspension was counted and the cells were plated in high glucose DMEM/F12 culture medium with 10% fetal bovine serum at a density of 1×10^5 cells/well of a Biocoat poly-D-lysine-coated 96-well plate. The day following plating was considered 1 day in vitro (DUV). Cells were maintained in a stable environment at 37° C., 95% humidity, and 5% CO2. A partial medium change was performed at 3 DIV. […]
[^3H]Dopamine uptake is used as a measure of the health and integrity of dopaminergic neurons in culture (Prochiantz et al., PNAS 76: 5387-5391, 1979). […] Briefly, cells treated with 6-OHDA in the presence and absence of 5-amino-anthra(9,1-cd)isothiazol-6-one were assessed in the uptake assay 22 hrs after exposure to 6-OHDA. […] Radioactivity was removed and the cultures were washed 3× with ice cold PBS. […]

[2] = Brain-Blood Plasma Distribution In Vivo; design: species or system Sprague-Dawley rats; settings: rat
Protocol: 5-Amino-anthra(9,1-cd)isothiazol-6-one was administered intravenously (10 mg/kg) into the veins of Sprague-Dawley rats. After 2 hr, blood samples were obtained from the animals and their vascular systems were perfused with approximately 100 mL of saline to rid their brains of blood. The brains were removed from the animals, weighed, and homogenized in a 50 mL conical tube containing 10 equivalents (w/v) of methanol/saline (1:1) using a Tissue Tearer (Fischer Scientific). The homogenized material was extracted by adding 600 μL of cold methanol to 250 μL of brain homogenate vortexed for 30 sec and subjected to centrifugation for 5 min. After centrifugation, 600 μL of the resulting supernatant was transferred to a clean tube and evaporated at room temperature under reduced pressure to provide a pellet. […] The brain homogenate analysis samples, plasma analysis samples, and standard analysis samples were analyzed and compared using HPLC by injecting 100 μL of a sample onto a 5 μm C-18 Luna column (4.6 mm×150 mm, commercially available from Phenomenex of Torrance, Calif.) and eluting at 1 mL/min with a linear gradient of 30% aqueous acetonitrile containing 0.1% trifluoroacetic acid to 90% aqueous acetonitrile containing 0.1% trifluoroacetic acid over 8 minutes and holding at 90% aqueous acetonitrile containing 0.1% trifluoroacetic acid for 3 min. with absorbance detection at 450 nm. […]

[3] = Solubility in aqueous media; format: physicochemical

Nc1ccc2snc3c2c1C(=O)c1ccccc1-3 [5-amino-anthra(9,1-cd)isothiazol-6-one]
protection of dopaminergic neurons ([3H]dopamine uptake) [1]: protects rat ventral mesencephalan neurons from the toxic effects of 6-OHDA | brain-drug concentration ([2]; 10 mg/kg intravenously, 2 hr post-dose): approximately 65 nmole/g | blood-brain barrier crossing ([2]; following intravenous administration): crosses the blood-brain barrier to a significant extent | solubility in aqueous media [3]: limited solubility
